Test results from paper PMC11952846, “The sterol-regulating human ARV1 binds cholesterol and phospholipids through its conserved ARV1 homology domain” (The Journal of Biological Chemistry, 2025).

Columns and labels:
[1] = molecular target: T1, GST-ARV1-N50 (Homo sapiens, UniProt Q9H2C2); experiment: Lipid overlay far western, truncation; type: binding; settings: compared to ARV1-N98 / ARV1-N70
T1 construct: Expresses amino-terminal 50 amino acids of ARV1; made in house; host or cells: E. coli BL21 (pGEX-4T1)
T1 sequence (Q9H2C2 1-50): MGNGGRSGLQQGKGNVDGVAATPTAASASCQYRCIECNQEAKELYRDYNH
Method: (§1) Lipid overlays were blocked in TBST-BSA (100 mM Tris–HCl buffer, pH 7.5, 150 mM NaCl, 0.5% Tween 20, 3% bovine serum albumin) for 1 h and subsequently washed eight separate times with TBST for 2 min each. Overlays were incubated with 0.5 μg/ml GST-tagged or 6XHIS-tagged proteins in 3% TBST-BSA buffer containing 0.1% Triton X-100, for 1 h at room temperature and washed as above. Overlays were incubated with either anti-GST or anti-6XHIS monoclonal antibodies at a 1:1000 dilution in TBST-BSA for 1 h at room temperature followed by eight washes in TBST. Overlays were visualized using Immobilon Western Chemiluminescent horseradish peroxidase substrate and protein–lipid interaction was detected using a GE ImageQuant LAS 3000 imager.

[2] = molecular target: GST-Annexin A2 (Homo sapiens, UniProt P07355); experiment: Protein-lipid liposome binding assay (positive control protein); settings: protein detected in final pellet
Method: (§2) Lyophilized lipids were reconstituted in chloroform at 10 mg/ml and stored in glass tubes with Teflon tops at −20 °C until use. One milliliter of 10 mg/ml stock was dried under a stream of nitrogen in a glass tube until a lipid cake/film was formed. The lipid cake was then rehydrated in BLT rehydration buffer (5 mM Tris/HCl, pH 7.4, containing 150 mM NaCl) to a concentration of 1 mg/ml. Lipid suspensions were subjected to three freeze/thaw cycles using a dry ice ethanol/[…] water bath to encapsulate the buffer and improve liposome formation. The suspension and lipid extruder were equilibrated to temperature for 10 min and liposomes were extruded using […] polycarbonate membranes (Avestin). Liposomes were made by mixing stock lipid PL (1 mg/ml) with PC (10 mg/ml).
(§3) Liposomes were serial diluted in floatation buffer (100 mM NaCl, 2 mM EDTA, pH 5.5) to a final concentration of 0.1 mg/ml. Nine hundred microliters of liposome solution was placed in clear ultracentrifuge tubes and mixed with 100 μl of 0.01 μg/ml of protein. The liposome/protein solution was incubated at room temperature for 1 h with occasional shaking. An initial 100 μl of liposome/protein solution (liposomes) was removed and the remaining 900 μl was centrifuged at 50,000g for 20 min at 4 °C. The pellet was resuspended in 800 μl of fresh floatation buffer, centrifuged as above, and 800 μl of supernatant was removed (wash 1). This was repeated a second time and again 800 μl of supernatant was removed (wash 2). The final pellet was resuspended in 100 μl of floatation buffer plus SDS treatment buffer (pellet). Thirty microliters of each fraction was run on a 15% SDS-PAGE gel and probed with an anti-GST monoclonal antibody at a 1:1500 dilution.

[3] = molecular target: T2, GST-ARV1 (full-length ARV1) (Homo sapiens, UniProt Q9H2C2); experiment: Lipid overlay far western; type: binding
T2 construct: Expresses full length ARV1; made in house; host or cells: E. coli BL21 (pGEX-4T1)
T2 sequence (Q9H2C2 1-271): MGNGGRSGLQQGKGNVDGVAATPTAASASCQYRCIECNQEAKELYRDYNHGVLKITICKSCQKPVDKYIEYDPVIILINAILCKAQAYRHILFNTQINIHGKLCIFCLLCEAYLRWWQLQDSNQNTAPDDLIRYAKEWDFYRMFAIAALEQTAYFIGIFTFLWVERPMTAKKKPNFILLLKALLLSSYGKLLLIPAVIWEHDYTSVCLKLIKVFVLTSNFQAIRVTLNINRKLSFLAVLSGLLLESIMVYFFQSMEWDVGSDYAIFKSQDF
Method: as §1

[4] = molecular target: T3, GST-ARV1-N98 (Homo sapiens, UniProt Q9H2C2); experiment: Lipid overlay far western; type: binding
T3 construct: Expresses amino-terminal 98 amino acids of ARV1; made in house; host or cells: E. coli BL21 (pGEX-4T1)
T3 sequence (Q9H2C2 1-98): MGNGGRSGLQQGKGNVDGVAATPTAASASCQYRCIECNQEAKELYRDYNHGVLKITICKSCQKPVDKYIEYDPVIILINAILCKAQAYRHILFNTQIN
Method: as §1

[5] = molecular target: T2, GST-ARV1 (full-length ARV1); experiment: Protein-lipid liposome binding assay (ultracentrifugation, Western blot); settings: protein detected in final pellet
Method: as §2
Cholesterol composition liposomes were rehydrated with cholesterol rehydration buffer (10 mM Hepes, pH 7.4, containing 150 mM KCl).
as §3

[6] = lipid-embedded membrane strips, incl. sphingolipid strip
[7] = PIP lipid membrane strip, 100pmol-1.56pmol per spot

Chain of GST-Annexin A2 (P07355 whole entry): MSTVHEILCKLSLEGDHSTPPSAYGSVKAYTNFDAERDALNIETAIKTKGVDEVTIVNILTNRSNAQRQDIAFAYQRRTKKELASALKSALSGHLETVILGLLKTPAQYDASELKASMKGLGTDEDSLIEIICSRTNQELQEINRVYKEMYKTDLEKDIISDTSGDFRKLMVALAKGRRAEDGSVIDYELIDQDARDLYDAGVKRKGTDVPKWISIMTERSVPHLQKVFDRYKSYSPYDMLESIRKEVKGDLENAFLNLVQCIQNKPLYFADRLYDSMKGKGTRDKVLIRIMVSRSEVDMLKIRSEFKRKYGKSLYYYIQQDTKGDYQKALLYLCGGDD

| Compound | binding to PC:PL liposomes [2] | binding to PC:PL liposomes [5] | change of lipid-protein interaction [1] | lipid-protein interaction [3, 6] | lipid-protein interaction [4, 6] | lipid-protein interaction [3, 7] | lipid-protein interaction [4, 7] |
| --- | --- | --- | --- | --- | --- | --- | --- |
| CCCCCCCC/C=C\CCCCCCCC(=O)OC[C@H](COP(=O)(O)OCC(O)CO)OC(=O)CCCCCCC/C=C\CCCCCCCC (stereo partly drawn) [PG, phosphatidylglycerol] | bound | bound | eliminated | weakly | interacted | – | – |
| CCCCCCCCCCCCCCCCCC(=O)OC[C@H](COP(=O)(O)OC[C@H](N)C(=O)O)OC(=O)CCCCCCCCCCCCCCCCC [PS, phosphatidylserine] | bound | bound | restored | interacted | interacted | – | – |
| CCCCCC(=O)O[C@H](COC(=O)CCCCCNC(=O)CCCC[C@@H]1SC[C@@H]2NC(=O)N[C@@H]21)COP(=O)(O)O[C@H]1[C@H](O)[C@@H](O)[C@H](OP(=O)(O)O)[C@@H](O)[C@H]1O [reference compound] | – | – | – | weakly | interacted | weakly | interacted |

More lines, main results first:

| binding to PC:PL liposomes [2] | binding to PC:PL liposomes [5] | Compound | change of lipid-protein interaction [1] | lipid-protein interaction [3, 6] | lipid-protein interaction [4, 6] | lipid-protein interaction [3, 7] | lipid-protein interaction [4, 7] |
| --- | --- | --- | --- | --- | --- | --- | --- |
| bound | bound | CCCCC/C=C\C/C=C\CCCCCCCC(=O)OC[C@H](COP(=O)(O)OCC(O)COP(=O)(O)OC[C@@H](COC(=O)CCCCCCC/C=C\C/C=C\CCCCC)OC(=O)CCCCCCC/C=C\C/C=C\CCCCC)OC(=O)CCCCCCC/C=C\C/C=C\CCCCC (stereo partly drawn) [CL, cardiolipin] | eliminated | interacted | interacted | – | – |
| bound | bound | CCCCCCCCCCCCCCCC(=O)OC[C@H](COP(=O)(O)O)OC(=O)CCCCCCCCCCCCCCC [PA, phosphatidic acid] | – | – | – | – | – |
| very weakly | very weakly | phosphatidylcholine [PC] | – | – | – | – | – |
| Neither | Neither | phosphatidylethanolamine [PE] | – | not seen | not seen | – | – |
